Laboratory results reported in patent US20230310386A1, “INJECTABLE PHARMACEUTICAL COMPOSITIONS AND USES THEREOF” (Intervet Inc., priority 2020, published 2023).
Several values for one entry are separate records, joined by “and”; a condition that tells them apart may be missing. Equal entries are not always repeated.

Assay: Dose accuracy study of the reconstituted composition comprising moxidectin and fluralaner
Type: physicochemical
Settings: reconstituted composition of Example 9, 1 mL doses #1-6
Method: The vial comprising moxidectin microspheres from Example 3 and fluralaner particles from Example 7 were reconstituted with 17 mL of the aqueous carrier of Example 6. During reconstitution the vial containing the moxidectin microspheres and fluralaner particles was rotated while being held horizontally throughout carrier addition.
Once all the carrier was added, the vial was shaken for 1 minute.
Herein, the vial with the reconstituted composition as described above was manipulated in one of the following ways: • vigorously hand shaken for 1, 2 or 3 minutes prior to sampling; • vigorously hand shaken for 3 minutes and mixed using the syringe 5 times prior to sampling; or • vigorously hand shaken for 3 minutes, mixed using the syringe 5 times and vortexed for […] prior to sampling.
After the solid material was completely suspended, six 1 mL doses were sampled from the vial. Prior to each dose, the vial was vigorously shaken for 15 seconds to avoid settling between samples.
Each of the six doses were transferred to a separate 50 mL volumetric flask along with 10 mL of water: then the samples were diluted to volume with 50/50 acetonitrile/isopropanol and sonicated for 20 minutes.
These samples were analysed to determine the moxidectin concentration.
Additionally, 1 mL of the samples were transferred into separate 25 mL volumetric flasks and diluted with 40/40/20 acetonitrile/isopropanol/water. The fluralaner concentrations were determined from these diluted samples.

Structure (SMILES): Cc1cc(C2=NOC(c3cc(Cl)cc(Cl)c3)(C(F)(F)F)C2)ccc1C(=O)NCC(=O)NCC(F)(F)F (centres unmarked) [Fluralaner, 4-[5-(3,5-dichlorophenyl)-5-trifluoromethyl-4,5-dihydroisoxazol-3-yl]-2-methyl-N-[(2,2,2-trifluoro-ethylcarbamoyl)-methyl]-benzamide]
- Fluralaner Percent Label Claim (hand shaken for 1 minute): 104.38 Percent Label Claim and 90.80 Percent Label Claim and 102.68 Percent Label Claim and 101.83 Percent Label Claim and 106.97 Percent Label Claim and 103.52 Percent Label Claim
- Fluralaner Percent Label Claim (hand shaken for 2 minutes): 80.44 Percent Label Claim and 103.67 Percent Label Claim and 102.82 Percent Label Claim and 84.95 Percent Label Claim and 99.01 Percent Label Claim and 107.40 Percent Label Claim
- Fluralaner Percent Label Claim (hand shaken for 3 minutes): 95.36 Percent Label Claim and 102.59 Percent Label Claim and 95.41 Percent Label Claim and 99.43 Percent Label Claim and 108.06 Percent Label Claim and 88.68 Percent Label Claim
- Fluralaner Percent Label Claim (hand shaken for 3 minutes and mixed using a syringe): 105.95 Percent Label Claim and 104.31 Percent Label Claim and 89.74 Percent Label Claim and 105.87 Percent Label Claim and 104.26 Percent Label Claim and 103.83 Percent Label Claim
- Fluralaner Percent Label Claim (hand shaken for 3 minutes, mixed using a syringe, and vortexed): 100.86 Percent Label Claim and 106.80 Percent Label Claim and 105.14 Percent Label Claim and 105.86 Percent Label Claim and 106.37 Percent Label Claim and 104.61 Percent Label Claim
